Source: US11566022B2, “3-(5-methoxy-1-oxoisoindolin-2-yl)piperidine-2,6-dione derivatives and uses thereof” (NOVARTIS AG, priority 2019, dated 2023)
Read-outs that look alike come from different tables or passages of the source.

How the values were obtained:
HiBit-WIZ fusion protein = HiBit-WIZ fusion protein (Homo sapiens, UniProt O95785+Q96SW2); assay: Quantification of WIZ protein levels in HiBit tag fusion protein assay (WIZ HiBit assay in 293T cells); type: cell-based; parameters: Dmax: dose or concentration left out as unconfirmed; settings: for Dmax / remaining activity at up to 25 µM / remaining activity: HEK-293T, 293T cells; for remaining activity at up to 25 µM: DMSO-normalized, curve-fitted percentage of WIZ-HiBit remaining at 25 uM, read-out: WIZ Amax; for DC50: WIZ HiBit assay in 293T cells, 10-point, 5-fold dose response, highest concentration 25 μM, about 18 hours, read-out: WIZ AC50; for remaining activity: read-out: WIZ Amax, DMSO-normalized, curve-fitted percentage of WIZ-HiBit remaining at 25 uM
[1] = SCD, current standard of care; cited from earlier work
[2] = 100 minus Amax, read-out: % degradation of WIZ (100-Amax)
[3] = read-out: % degradation of WIZ (100-Amax), 100 minus Amax

Sequence of HiBit-WIZ fusion protein (O95785 whole entry, the tested form may be a part): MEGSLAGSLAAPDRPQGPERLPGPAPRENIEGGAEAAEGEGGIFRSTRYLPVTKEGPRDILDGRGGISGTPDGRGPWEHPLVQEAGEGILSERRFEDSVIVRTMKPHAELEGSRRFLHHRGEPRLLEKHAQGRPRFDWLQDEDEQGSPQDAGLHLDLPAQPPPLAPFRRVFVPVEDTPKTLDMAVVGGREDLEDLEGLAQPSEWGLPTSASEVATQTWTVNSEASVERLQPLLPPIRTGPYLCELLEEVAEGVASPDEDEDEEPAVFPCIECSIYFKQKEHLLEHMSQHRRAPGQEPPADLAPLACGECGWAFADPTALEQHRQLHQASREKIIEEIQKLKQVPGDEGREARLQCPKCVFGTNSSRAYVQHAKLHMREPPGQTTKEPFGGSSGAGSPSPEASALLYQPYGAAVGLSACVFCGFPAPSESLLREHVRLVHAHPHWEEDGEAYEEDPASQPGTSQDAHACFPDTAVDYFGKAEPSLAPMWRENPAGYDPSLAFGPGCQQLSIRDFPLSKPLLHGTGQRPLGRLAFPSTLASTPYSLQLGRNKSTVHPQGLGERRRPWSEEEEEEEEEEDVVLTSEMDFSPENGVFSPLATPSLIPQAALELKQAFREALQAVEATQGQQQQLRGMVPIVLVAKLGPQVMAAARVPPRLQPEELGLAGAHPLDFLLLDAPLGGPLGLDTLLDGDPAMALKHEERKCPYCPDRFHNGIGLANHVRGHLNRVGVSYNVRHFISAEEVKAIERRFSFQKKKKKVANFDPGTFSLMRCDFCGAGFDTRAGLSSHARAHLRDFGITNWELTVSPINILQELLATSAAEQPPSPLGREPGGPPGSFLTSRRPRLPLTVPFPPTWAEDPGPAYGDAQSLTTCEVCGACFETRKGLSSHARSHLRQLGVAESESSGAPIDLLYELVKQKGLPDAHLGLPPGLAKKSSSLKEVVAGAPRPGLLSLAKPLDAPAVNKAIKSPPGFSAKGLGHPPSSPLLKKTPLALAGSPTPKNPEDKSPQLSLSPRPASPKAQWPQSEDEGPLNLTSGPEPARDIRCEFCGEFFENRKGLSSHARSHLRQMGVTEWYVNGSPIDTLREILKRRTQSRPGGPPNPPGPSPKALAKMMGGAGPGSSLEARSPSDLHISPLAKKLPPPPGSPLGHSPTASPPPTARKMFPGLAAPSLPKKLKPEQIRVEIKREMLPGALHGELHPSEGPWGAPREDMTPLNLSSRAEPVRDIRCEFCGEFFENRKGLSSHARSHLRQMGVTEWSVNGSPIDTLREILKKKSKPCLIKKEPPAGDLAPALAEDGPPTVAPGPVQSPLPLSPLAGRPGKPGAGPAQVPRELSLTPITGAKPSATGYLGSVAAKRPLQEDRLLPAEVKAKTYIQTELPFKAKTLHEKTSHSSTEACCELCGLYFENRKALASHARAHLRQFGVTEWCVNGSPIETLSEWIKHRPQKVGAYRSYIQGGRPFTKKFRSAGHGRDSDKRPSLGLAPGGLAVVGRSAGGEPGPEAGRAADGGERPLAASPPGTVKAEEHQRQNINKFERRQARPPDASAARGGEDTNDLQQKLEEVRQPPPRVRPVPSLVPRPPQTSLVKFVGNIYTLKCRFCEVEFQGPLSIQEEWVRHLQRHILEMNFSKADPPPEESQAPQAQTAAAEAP
Sequence of HiBit-WIZ fusion protein (Q96SW2 whole entry, the tested form may be a part): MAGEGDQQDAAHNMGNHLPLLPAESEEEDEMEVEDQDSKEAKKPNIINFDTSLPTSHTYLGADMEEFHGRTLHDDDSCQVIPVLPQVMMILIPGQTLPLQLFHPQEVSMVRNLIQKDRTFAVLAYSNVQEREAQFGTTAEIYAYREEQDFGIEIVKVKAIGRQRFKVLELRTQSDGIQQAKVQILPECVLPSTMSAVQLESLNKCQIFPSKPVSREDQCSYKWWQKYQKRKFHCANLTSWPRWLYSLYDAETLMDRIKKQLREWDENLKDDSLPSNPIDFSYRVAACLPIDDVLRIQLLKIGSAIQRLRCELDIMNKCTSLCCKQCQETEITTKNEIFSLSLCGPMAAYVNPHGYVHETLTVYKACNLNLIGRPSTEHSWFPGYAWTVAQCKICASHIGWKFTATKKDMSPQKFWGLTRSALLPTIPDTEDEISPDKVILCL
Sequence of HiBit-WIZ fusion protein (Q16531 whole entry partner, the tested form may be a part): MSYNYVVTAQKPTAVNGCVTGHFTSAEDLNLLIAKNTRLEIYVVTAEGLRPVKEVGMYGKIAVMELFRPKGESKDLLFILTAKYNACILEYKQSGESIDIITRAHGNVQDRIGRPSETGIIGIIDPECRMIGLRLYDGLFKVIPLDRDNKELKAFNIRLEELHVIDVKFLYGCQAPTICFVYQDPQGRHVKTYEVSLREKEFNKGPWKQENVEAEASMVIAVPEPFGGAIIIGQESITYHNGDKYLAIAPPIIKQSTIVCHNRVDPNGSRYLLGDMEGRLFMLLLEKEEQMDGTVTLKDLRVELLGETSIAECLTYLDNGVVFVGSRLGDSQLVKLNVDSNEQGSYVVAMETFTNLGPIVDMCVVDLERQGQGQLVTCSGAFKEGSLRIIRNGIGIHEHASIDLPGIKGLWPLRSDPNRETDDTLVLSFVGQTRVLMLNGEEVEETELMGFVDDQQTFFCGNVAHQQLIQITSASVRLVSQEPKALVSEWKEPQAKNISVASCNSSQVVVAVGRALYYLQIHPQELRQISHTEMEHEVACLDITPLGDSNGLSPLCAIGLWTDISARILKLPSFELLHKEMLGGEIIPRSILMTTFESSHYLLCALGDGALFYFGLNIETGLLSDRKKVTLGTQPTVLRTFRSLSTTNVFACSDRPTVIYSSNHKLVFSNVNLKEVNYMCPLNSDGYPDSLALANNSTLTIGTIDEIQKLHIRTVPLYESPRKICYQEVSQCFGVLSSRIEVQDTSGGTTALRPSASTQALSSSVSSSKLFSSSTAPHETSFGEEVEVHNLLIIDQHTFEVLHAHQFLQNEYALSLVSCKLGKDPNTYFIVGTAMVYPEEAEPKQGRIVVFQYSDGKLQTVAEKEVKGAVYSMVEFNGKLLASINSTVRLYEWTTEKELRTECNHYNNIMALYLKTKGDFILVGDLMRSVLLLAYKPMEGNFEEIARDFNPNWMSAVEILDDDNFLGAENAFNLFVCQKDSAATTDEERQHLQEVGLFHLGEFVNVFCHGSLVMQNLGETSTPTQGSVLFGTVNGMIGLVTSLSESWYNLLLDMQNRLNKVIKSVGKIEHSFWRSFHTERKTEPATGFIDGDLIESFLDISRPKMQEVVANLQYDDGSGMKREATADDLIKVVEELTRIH

| Compound | Dmax (HiBit-WIZ fusion protein; [2]) [%] | remaining activity at up to 25 µM (HiBit-WIZ fusion protein) [%] | DC50 (HiBit-WIZ fusion protein) [µM] | response rate [1] | Dmax (HiBit-WIZ fusion protein; [3]) [%] | remaining activity (HiBit-WIZ fusion protein) [%] |
| --- | --- | --- | --- | --- | --- | --- |
| CN(C)Cc1ncc(-c2ccc(Oc3cc(Cl)cnc3CN3CCCC[C@@H]3COc3ccc4c(c3)CN(C3CCC(=O)NC3=O)C4=O)cc2)n1C (stereo partly shown) [Compound I-50di] | 79 | 21 | 1.18 | – | – | – |
| NC(=O)NO [Hydroxyurea] | – | – | – | less than 40% | – | – |
| O=C1CCC(N2Cc3cc(OC[C@@H]4CCCCN4C(=O)c4cnc(N5CCCCC5)s4)ccc3C2=O)C(=O)N1 (stereo partly shown) [Compound I-72fi] | 70.2 | 29.8 | 2.05 | – | – | – |
| O=C1CCC(N2Cc3cc(OC[C@@H]4CCCCN4Cc4ncccc4O)ccc3C2=O)C(=O)N1 (stereo partly shown) [Compound I-50dg] | 16.1 | 83.9 | > 25 | – | – | – |
| Cn1cncc1CN1CCCC[C@@H]1COc1ccc2c(c1)CN(C1CCC(=O)NC1=O)C2=O (stereo partly shown) [Compound I-50df] | 55.9 | 44.1 | 11.1 | – | – | – |
| O=C1CCC(N2Cc3cc(OC[C@@H]4CCCCN4C(=O)CCN4CCOCC4)ccc3C2=O)C(=O)N1 (stereo partly shown) [Compound I-72ca] | 10.2 | 89.8 | > 25 | – | – | – |
| Cn1c(CN2CCCC[C@H]2COc2ccc3c(c2)CN(C2CCC(=O)NC2=O)C3=O)nc2ccccc21 (stereo partly shown) [Compound I-50ap] | 30.1 | 69.9 | > 25 | – | – | – |
| O=C1CCC(N2Cc3cc(OC[C@@H]4CCCCN4C(=O)CCC(=O)N4CCOCC4)ccc3C2=O)C(=O)N1 (stereo partly shown) [Compound I-72eo] | 4.8 | 95.2 | > 25 | – | – | – |
| O=C1CCC(N2Cc3cc(OC[C@@H]4CCCCN4Cc4cc(Cl)ccc4O)ccc3C2=O)C(=O)N1 (stereo partly shown) [Compound I-50bj] | 25.8 | 74.2 | > 25 | – | – | – |
| O=C1CCC(N2Cc3cc(OC[C@@H]4CCCCN4C(=O)C4CCCOC4)ccc3C2=O)C(=O)N1 (stereo partly shown) [Compound I-72gj] | 2.3 | 97.7 | > 25 | – | – | – |
| COc1ccccc1CN1CCCC[C@@H]1COc1ccc2c(c1)CN(C1CCC(=O)NC1=O)C2=O (stereo partly drawn) [Compound I-133, 3-(5-(((R)-1-(2-methoxybenzyl)piperidin-2-yl)methoxy)-1-oxoisoindolin-2-yl)piperidine-2,6-dione] | – | – | 0.0088 | – | 83.3 | 16.7 |
| O=C1CCC(N2Cc3cc(OC[C@H]4CCCCN4Cc4cccc(N5CCCC5)c4)ccc3C2=O)C(=O)N1 (stereo partly shown) [Compound I-50do] | 99.9 | 0.1 | 0.002 | – | – | – |
| O=C1CCC(N2Cc3cc(OC[C@@H]4CCCCN4C(=O)c4snnc4-c4ccccc4)ccc3C2=O)C(=O)N1 (stereo partly shown) [Compound I-72fq] | 0.3 | 99.7 | > 25 | – | – | – |
| COC(=O)c1ccc(Oc2ccc(CN3CCCC[C@@H]3COc3ccc4c(c3)CN(C3CCC(=O)NC3=O)C4=O)cc2)cc1 (stereo partly shown) [Compound I-50bh] | 99.9 | 0.1 | 0.005 | – | – | – |
| CCN1CCC(c2ccc(CN3CCCC[C@@H]3COc3ccc4c(c3)CN(C3CCC(=O)NC3=O)C4=O)cc2)CC1 (stereo partly drawn) [Compound I-129, 3-(5-(((R)-1-(4-(1-ethylpiperidin-4-yl)benzyl)piperidin-2-yl)methoxy)-1-oxoisoindolin-2-yl)piperidine-2,6-dione] | – | – | 0.046 | – | 67.7 | 32.3 |
| O=C1CCC(N2Cc3cc(OC[C@@H]4CCCCN4C(=O)c4cccc(N5CCOCC5)n4)ccc3C2=O)C(=O)N1 (stereo partly shown) [Compound I-72ae] | 14.7 | 85.3 | > 25 | – | – | – |
| Cn1nccc1-c1cccc(C(=O)N2CCCC[C@H]2COc2ccc3c(c2)CN(C2CCC(=O)NC2=O)C3=O)c1 (stereo partly shown) [Compound I-72gz] | 13.7 | 86.3 | > 25 | – | – | – |
| O=C1CCC(N2Cc3cc(OC[C@H]4CCCCN4Cc4cccn5ccnc45)ccc3C2=O)C(=O)N1 (stereo partly shown) [Compound I-50ca] | 76.3 | 23.7 | 0.239 | – | – | – |
| O=C1CCC(N2Cc3cc(OC[C@@H]4CCCCN4C(=O)c4ccc(N5CCOCC5)cc4)ccc3C2=O)C(=O)N1 (stereo partly shown) [Compound I-72an] | 53.8 | 46.2 | 13.8 | – | – | – |
| O=C1CCC(N2Cc3cc(OC[C@@H]4CCCCN4C(=O)C45CC(F)(C4)C5)ccc3C2=O)C(=O)N1 (stereo partly shown) [Compound I-72iv] | 2.2 | 97.8 | > 25 | – | – | – |

Now from value to molecule, other results behind:

| Dmax (HiBit-WIZ fusion protein; [2]) [%] | remaining activity at up to 25 µM (HiBit-WIZ fusion protein) [%] | DC50 (HiBit-WIZ fusion protein) [µM] | Compound | response rate [1] | Dmax (HiBit-WIZ fusion protein; [3]) [%] | remaining activity (HiBit-WIZ fusion protein) [%] |
| --- | --- | --- | --- | --- | --- | --- |
| 93.4 | 6.64 | 0.0019 | CC(C)(C)OC(=O)N1CCC(c2ccc(CN3CCCC[C@@H]3COc3ccc4c(c3)CN(C3CCC(=O)NC3=O)C4=O)cc2)CC1 (stereo partly drawn) [Compound I-127, Tert-butyl 4-(4-(((2R)-2-(((2-(2,6-dioxopiperidin-3-yl)-1-oxoisoindolin-5-yl)oxy)methyl)piperidin-1-yl)methyl)phenyl)piperidine-1-carboxylate] | – | – | – |
| 99.4 | 0.64 | 0.0038 | O=C1CCC(N2Cc3cc(OC[C@H]4CCCCN4Cc4ccc(F)cc4)ccc3C2=O)C(=O)N1 (stereo partly shown) [Compound I-113] | – | – | – |
| 22 | 78 | > 25 | O=C1CCC(N2Cc3cc(OC[C@@H]4CCCCN4Cc4cc(-n5nnnc5C(F)(F)F)ccc4O)ccc3C2=O)C(=O)N1 (stereo partly shown) [Compound I-50x] | – | – | – |
| 71.6 | 28.4 | 1.9 | COc1ccc(C(=O)N2CCCC[C@H]2COc2ccc3c(c2)CN(C2CCC(=O)NC2=O)C3=O)cc1OCc1ccccc1 (stereo partly shown) [Compound I-72d] | – | – | – |
